Earlier results, collected in US20210030918A1, “COATING OF FIBERS WITH DIPEPTIDE NANOSTRUCTURES USING ULTRASONIC CAVITATION” (Ramot at Tel-Aviv University Ltd., priority 2019, published 2021).

Structure (SMILES): COc1cc(/C=C/C(=O)CC(=O)/C=C/c2ccc(O)c(OC)c2)ccc1O [Curcumin, (1E,6E)-1,7-bis(4-hydroxy-3-methoxyphenyl)-1,6-heptadiene-3,5-dione]
- aqueous solubility: poor
